According to PMC9883252 (iScience, 2023):

Columns and labels:
[1] = tested on: P. falciparum NF54 strain; test: Inhibition activity in the asexual blood stages; assay type: cell-based; conditions: Plasmodium falciparum, NF54, 72 h, read-out: Pf IC50 (mean)
[2] = tested on: P. falciparum gametocytes (NF54 and 3601E1); test: Activity against synchronous gametocytes; assay type: cell-based, Plasmodium falciparum; conditions: stage V

Row | Structure (SMILES) | IC50 [1] | killing of late stage gametocytes [2]
1 | COc1ccc2cc1Oc1ccc(cc1)C[C@@H]1NCCc3cc(OC)c4c(c31)Oc1cc3c(cc1O4)CCN(C)[C@H]3C2 [trilobine] | 0.41 µM | 
2 | COc1ccc(C[C@H](N)C(=O)N[C@H]2[C@@H](O)[C@H](n3cnc4c(N(C)C)ncnc43)O[C@@H]2CO)cc1 [Puromycin, puromycin] |  | does not reach complete killing
